According to patent US7091243B2, “Anti-irritants” (Croda, Inc., priority 2001, dated 2006):

Assays:
[1] = tested on: MDCK (Kidney, Canine) strain NBL-2 cells; assay: Trans-Epithelial Permeability (TEP) Assay, intracellular leakage of sodium fluorescein; type: cell-based; settings: for anti-irritating activity: 3% ester in shampoo base, Table 7; for anti-irritating activity, comparison between esters: referring to Table 4, 5% ester
From the text: The test methodology for measuring the irritation potential of alkoxylated esters is Trans-Epithelial Permeability (TEP) Assay. The TEP Assay measures intracellular leakage of a suitable marker reagent, such as sodium fluorescein, through cells that were exposed to irritant-containing compositions. Smaller leakage indicates lower degree of cell damage. If the cells are exposed to an irritant-containing composition with and without an anti-irritant, the magnitude of reduction in the intracellular leakage measures the anti-irritating ability of the anti-irritant. For additional discussion of the TEP Assay, see Tchao, R., Trans-Epithelial Permeability of Fluorescein In Vitro As An Assay To Determine Eye Irritants, Progress in In Vitro Toxicology, A M Goldberg ed., 6:271–283 (1988); Drewitt-Barlow, B., McPherson, J., Broyd, J. and Williamson, 2000. No Tears for Baby. Global Cosmetic Industry, (October, 2000): 16–20; Burke, J. and Joseph, L. B., 2000, In Vitro Analysis of the Irritation Mitigating Properties of PEG-150 Pentaerythrityl Tetrastearate, Society of Cosmetic Chemists, 2000 Technology Showcase, NY, N.Y., all of which are incorporated by reference herein.
The ingredients were dissolved in distilled water and pH was adjusted to 6.8 to 7.2. Sodium laurel ether sulfate (triethoxylated) is a known irritant. The irritation potentials of the compositions I, II, III and IV were measured using the TEP assay as follows.
MDCK (Kidney, Canine) strain NBL-2 purchased from American Type Culture Collection (CCL 34) were cultured under standard conditions. Three days prior to experimentation the cells were subcultured onto Corning 6.5 mm Transwell porous cell culture inserts at 1×10^5 cells per insert. Cells are grown to confluence in 3 days. The inserts were washed 5 times with phosphate buffered saline (PBS) immediately before testing. All reagents were made prior to experimentation, with the exception of the final dilutions with a saline solution, which were prepared on the day of the experiment.
The compositions I, II, III, and IV were diluted to 1:50 and 1:100 with Hanks Buffered Saline Solution (HBSS). For example, to prepare a 1:50 dilution of the test composition I, 1 part of the test composition I was mixed with 49 parts of HBSS. The diluted samples were placed on the ventral side of the insert (in duplicate) in direct contact with the cells for 15 minutes. Two inserts with HBSS were used as the negative control and inserts without cells were used as references of 100% leakage. After application of the test article, the inserts were washed with large amounts of PBS.
Sodium fluorescein was added directly to the cell monolayer and 1 ml of HBSS was placed in the well below. After 30 minutes of incubation at room temperature triplicate 200 μl samples were removed from the well and the optical density (OD) of the well fluid was determined. The experimental OD was then compared to the OD of 100% leakage reference (filter without cells), and provided a measure of irritation potential of the tested compositions.
The reductions in the irritation potential were calculated as the percentage of the absolute reduction relative to the control formulation (control is taken as 100%, and the percentages of reduction are calculated as 100% minus (observed leakage)/(observed leakage of control)×100%).

[2] = tested on: Epiocular™ Tissue Model (OCL-200); assay: Epiocular Tissue Model (OCL-200) cell survival, MTT readout; type: cell-based; settings: 5% ester added to 10% SLS in PBS
Method: The following example illustrates the discovery of the anti-irritation activity of certain alkoxylated esters. A test composition A and a control composition B were prepared. The test composition A contained 5% of Di-PPG-3-PEG-4 Myristyl Ether Adipate, an alkoxylated (tripropoxy-tetraethoxy) diester of tripropoxy-tetraethoxy myristyl alcohol and adipic acid, and 10% of sodium laurel sulfate (SLS), a known irritant, in Phosphate Buffered Saline (PBS) at pH 6.8–7.2. The control composition B contained 10% SLS in PBS at the same pH without the alkoxylated ester. A separate solution of PBS (without SLS and the ester) was used as a negative control solution. The testing was carried out on Epiocular™, Tissue Model (OCL-200), from MatTek Corporation. Epiocular™ inserts were equilibrated overnight in assay media. Test composition A and B, and the negative control solution were then separately placed in direct contact with the cells. For each test substance, the progress of cell death was measured at 1, 5, and 10 minutes. The negative control inserts were exposed to phosphate buffered saline (PBS) for 10 minutes. The inserts were washed with PBS, equilibrated in Eagle's Minimal Essential Medium (EMEM) prior to incubation in MTT (3-[4,5-Dimethylthiazol-2-yl]-2,5-diphenyltetrazolium bromide), and extracted in isopropyl alcohol overnight. […]

| Substance | anti-irritating activity [1] | reduction in the irritation potential of the shampoo ([1]; 5% ester in J&J Baby Shampoo, Table 9) | effect on cell death [2] | anti-irritating activity, comparison between esters [1] |
| --- | --- | --- | --- | --- |
| Di-PPG-3-PEG-4 Cetyl Ether Adipate | show anti-irritating activity, with the magnitude of activity being substantially greater |  |  |  |
| Di-PPG-3-PEG-4 Myristyl Ether Adipate |  | dramatic reduction in the irritation potential | substantially reduces cell death |  |
| Di-PPG-2-PEG-10 Myristyl Adipate | show anti-irritating activity |  |  | greater anti-irritating activity than Di-PPG-2-PEG-10 Lauryl Adipate |
| Di-PPG-2-PEG-10 Steareth Ether Adipate [Di-PPG-2-PEG-10 Steareth Adipate] |  |  |  | greater anti-irritating activity than Di-PPG-2-PEG-10 Myristyl Adipate |
